{"source": "patent US5266588A", "about": "“Compound produced by a strain of microtetraspora having antibacterial and neuritogenic activity” (Bristol-Myers Squibb Company, priority 1992, dated 1993)", "key": {"[1]": {"conditions": "literature table; cited from earlier work"}, "[2]": {"system": "cholinergic neuron atrophy and spatial memory impairment", "conditions": "aged rats; cited from earlier work"}, "[3]": {"system": "PC12 pheochromocytoma cells", "conditions": "cited from earlier work"}, "[4]": {"system": "adrenal medullary autografts", "conditions": "intraperitoneal infusion, Parkinson's disease; cited from earlier work"}, "PC 12R cells": {"system": "PC 12R cells", "test": "Assay for the neurite outgrowth (PC 12R cells pre-treated with 0.1 ng/ml NGF)", "format": "cell-based, rat", "conditions": "for No. of Neurites: neurites over 10 mm long on monitor", "experimental": "Assay for the Neurite Outgrowth\nThe PC 12R cell density was adjusted to 1×10^5 cells/ml and 180 μl aliquots of the cell suspension were added to assay wells in a 96 well microtiter plate (Suimitomo). […] For the positive controls, 5.0 ng/ml NGF was added to a well. As negative controls, PC 12R cells without NGF were also prepared. […] Then a 20 μl aliquot of a test sample at varied concentrations was added to the test well containing PC 12R cells pre-treated with 0.1 ng/ml NGF. After 24 hours' incubation, the medium was removed and the cells were fixed with 0.3% glutaraldehyde (Tokyo Kasei) in Dulbecco's phosphate buffered saline and stained with Harris hematoxylin solution (Merck).\nThe stained cells were observed under a phase-contrast microscope connected with a video camera-CRT system. PC 12R cells were magnified 500 times on the CRT monitor. The lengths of spikes of the negative control cells were measured in order to establish the standard length of a spike of the PC 12R cells."}, "[5]": {"system": "retrograde neuronal cell death; septohippocampal connections", "conditions": "cited from earlier work"}, "Gram-positive bacteria": {"system": "Gram-positive bacteria", "test": "In vitro antibacterial activity against Gram-positive bacteria", "format": "cell-based", "experimental": "(§1) Assay for the Antibacterial Activity\n(§2) The MIC's of BU-4514N against various test microorganisms were determined by the serial 2-fold dilution method after overnight incubation at 32° C. Nutrient agar medium (Difco) was used for Gram-positive and Gram-negative bacteria."}, "Solubility": {"test": "Solubility", "format": "physicochemical"}, "S. typhi 901": {"system": "S. typhi 901", "test": "Antibacterial activity (serial 2-fold dilution MIC)", "format": "cell-based", "conditions": "Salmonella enterica, 18 h, pH 7", "experimental": "as §1, §2\n(§3) Medium: Nutrient Agar, pH 7.0\n(§4) Inoculum size: 10^5 cells/ml\n(§5) Incubations: 32° C., 18 hr"}, "E. coli Juhl A15119": {"system": "E. coli Juhl A15119", "test": "Antibacterial activity (serial 2-fold dilution MIC)", "format": "cell-based", "conditions": "Escherichia coli, JUHLA15119; Nutrient Agar, pH 7.0; 10^5 cells/ml; 32° C., 18 hr", "experimental": "as §1, §2, §3, §4, §5"}, "S. aureus FDA 209P JC-1": {"system": "S. aureus FDA 209P JC-1", "test": "Antibacterial activity (serial 2-fold dilution MIC)", "format": "cell-based", "conditions": "Staphylococcus aureus, FDA209P; Nutrient Agar, pH 7.0; 10^5 cells/ml; 32° C., 18 hr", "experimental": "as §1, §2, §3, §4, §5"}, "P. aeruginosa A9843A": {"system": "P. aeruginosa A9843A", "test": "Antibacterial activity (serial 2-fold dilution MIC)", "format": "cell-based", "conditions": "Pseudomonas aeruginosa, 18 h, pH 7", "experimental": "as §1, §2, §3, §4, §5"}, "B. subtilis PCI 219": {"system": "B. subtilis PCI 219", "test": "Antibacterial activity (serial 2-fold dilution MIC)", "format": "cell-based", "conditions": "Bacillus subtilis, PCI219; Nutrient Agar, pH 7.0; 10^5 cells/ml; 32° C., 18 hr", "experimental": "as §1, §2, §3, §4, §5"}, "M. luteus PCI 1001": {"system": "M. luteus PCI 1001", "test": "Antibacterial activity (serial 2-fold dilution MIC)", "format": "cell-based", "conditions": "Micrococcus luteus, PCI1001; Nutrient Agar, pH 7.0; 10^5 cells/ml; 32° C., 18 hr", "experimental": "as §1, §2, §3, §4, §5"}, "E. coli K12": {"system": "E. coli K12", "test": "Antibacterial activity (serial 2-fold dilution MIC)", "format": "cell-based", "conditions": "Escherichia coli, Nutrient Agar, pH 7.0, 10^5 cells/ml, 32° C., 18 hr", "experimental": "as §1, §2, §3, §4, §5"}, "E. coli NIHJ JC-2": {"system": "E. coli NIHJ JC-2", "test": "Antibacterial activity (serial 2-fold dilution MIC)", "format": "cell-based", "conditions": "Escherichia coli, NIHJJC2; Nutrient Agar, pH 7.0; 10^5 cells/ml; 32° C., 18 hr", "experimental": "as §1, §2, §3, §4, §5"}, "S. aureus Smith": {"system": "S. aureus Smith", "test": "Antibacterial activity (serial 2-fold dilution MIC)", "format": "cell-based", "conditions": "Staphylococcus aureus; Nutrient Agar, pH 7.0; 10^5 cells/ml; 32° C., 18 hr", "experimental": "as §1, §2, §3, §4, §5"}, "S. aureus A15036 (MRSA)": {"system": "S. aureus A15036 (MRSA)", "test": "Antibacterial activity (serial 2-fold dilution MIC)", "format": "cell-based", "conditions": "Staphylococcus aureus, Nutrient Agar, pH 7.0, 10^5 cells/ml, 32° C., 18 hr", "experimental": "as §1, §2, §3, §4, §5"}, "C. fleundii GN 7391": {"system": "C. fleundii GN 7391", "test": "Antibacterial activity (serial 2-fold dilution MIC)", "format": "cell-based", "conditions": "Nutrient Agar, pH 7.0; 10^5 cells/ml; 32° C., 18 hr", "experimental": "as §1, §2, §3, §4, §5"}, "K. pneumoniae PCI 602": {"system": "K. pneumoniae PCI 602", "test": "Antibacterial activity (serial 2-fold dilution MIC)", "format": "cell-based", "conditions": "Klebsiella pneumoniae, PCI602; Nutrient Agar, pH 7.0; 10^5 cells/ml; 32° C., 18 hr", "experimental": "as §1, §2, §3, §4, §5"}, "[6]": {"conditions": "NGF 0.1 ng/ml (Running control)"}, "[7]": {"conditions": "1.6 μg/ml, with 0.1 ng/ml NGF, 24 h"}, "[8]": {"conditions": "3.1 μg/ml, with 0.1 ng/ml NGF, 24 h"}, "[9]": {"conditions": "6.3 μg/ml, with 0.1 ng/ml NGF, 24 h"}, "[10]": {"conditions": "12.5 μg/ml, sum of 5 fields/well and 3 wells, with 0.1 ng/ml NGF, 24 h"}}, "note": "Entries after “also recorded” stand apart in the source; their conditions may differ."}
{"compound": "CC1=C(/C=C/C(C)=C/C=C/C(C)=C/C(=O)O)C(C)(C)CCC1", "note": "[Retinoic acid]", "values": [{"measurement": "Note (reported NGF mimic activity)", "setting": "[1]", "result": "NGF inducer"}]}
{"compound": "NGF: protein known to be essential for the development and maintenance of certain sympathetic and sensory neurons in the peripheral nervous system", "values": [{"measurement": "cholinergic neuron atrophy and spatial memory impairment", "setting": "[2]", "result": "ameliorate cholinergic neuron atrophy and spatial memory impairment"}, {"measurement": "response of PC12 cells to NGF", "setting": "[3]", "result": "differentiate into sympathetic neuron-like cells; also recorded: differentiating into sympathetic neuron-like cells"}, {"measurement": "support of adrenal medullary autografts", "setting": "[4]", "result": "supports adrenal medullary autografts"}, {"measurement": "No. of Cells", "setting": "PC 12R cells; [6]", "result": 1565}, {"measurement": "Ratio (No. of Neurites/No. of Cells)", "setting": "PC 12R cells; [6]", "result": 0.13, "unit": "%"}, {"measurement": "No. of Neurites", "setting": "PC 12R cells; [6]", "result": 2}, {"measurement": "No. of Cells", "setting": "PC 12R cells; NGF 5 ng/ml (Positive control)", "result": 1053}, {"measurement": "Ratio (No. of Neurites/No. of Cells)", "setting": "PC 12R cells; NGF 5 ng/ml (Positive control)", "result": 6.8, "unit": "%"}, {"measurement": "No. of Neurites", "setting": "PC 12R cells; NGF 5 ng/ml (Positive control)", "result": 72}, {"measurement": "sensitivity of PC 12R cells to NGF", "setting": "PC 12R cells; as high as", "result": 1, "unit": "ng/mL"}, {"measurement": "behavioral recovery", "setting": "[5]; after damage to the septohippocampal connections", "result": "promote behavioral recovery"}, {"measurement": "retrograde neuronal cell death", "setting": "[5]; intraventricular injections or infusions, young adult rats", "result": "prevent retrograde neuronal cell death"}]}
{"compound": "CC1=CC2CC(C)CCC2C(C)(C(=O)C2=C(O)CNC2=O)C1CC(C)OC1CCC(N)C(C)O1", "note": "(stereo not shown) [BU-4514N]", "values": [{"measurement": "in vitro antibacterial activity", "setting": "Gram-positive bacteria", "result": "good in vitro antibacterial activity"}, {"measurement": "solubility", "setting": "Solubility; acidic water", "result": "soluble"}, {"measurement": "solubility", "setting": "Solubility; dimethylsulfoxide", "result": "soluble"}, {"measurement": "solubility", "setting": "Solubility; methanol", "result": "soluble"}, {"measurement": "solubility", "setting": "Solubility; ordinary organic solvents, such as chloroform, ethyl acetate and benzene", "result": "practically insoluble"}, {"measurement": "solubility", "setting": "Solubility; water", "result": "practically insoluble"}, {"measurement": "No. of Neurites", "setting": "PC 12R cells; [7]", "result": 2}, {"measurement": "No. of Cells", "setting": "PC 12R cells; [7]", "result": 1611}, {"measurement": "Ratio (No. of Neurites/No. of Cells)", "setting": "PC 12R cells; [7]", "result": 0.12, "unit": "%"}, {"measurement": "No. of Neurites", "setting": "PC 12R cells; [8]", "result": 25}, {"measurement": "No. of Cells", "setting": "PC 12R cells; [8]", "result": 1848}, {"measurement": "Ratio (No. of Neurites/No. of Cells)", "setting": "PC 12R cells; [8]", "result": 1.4, "unit": "%"}, {"measurement": "No. of Neurites", "setting": "PC 12R cells; [9]", "result": 149}, {"measurement": "No. of Cells", "setting": "PC 12R cells; [9]", "result": 1570}, {"measurement": "Ratio (No. of Neurites/No. of Cells)", "setting": "PC 12R cells; [9]", "result": 9.5, "unit": "%"}, {"measurement": "No. of Neurites", "setting": "PC 12R cells; [10]", "result": 244}, {"measurement": "No. of Cells", "setting": "PC 12R cells; [10]", "result": 1123}, {"measurement": "Ratio (No. of Neurites/No. of Cells)", "setting": "PC 12R cells; 12.5 μg/ml, with 0.1 ng/ml NGF, 24 h", "result": 21.7, "unit": "%"}, {"measurement": "neurite outgrowth in number and length", "setting": "PC 12R cells; 12.5 to 6.3 μg/ml, compared to the negative control cells", "result": "significantly induces the neurite outgrowth in number and length"}, {"measurement": "MIC", "setting": "S. typhi 901", "result": "> 100", "unit": "µg/mL"}, {"measurement": "MIC", "setting": "E. coli Juhl A15119", "result": "> 100", "unit": "µg/mL"}, {"measurement": "MIC", "setting": "S. aureus FDA 209P JC-1", "result": 1.6, "unit": "µg/mL"}, {"measurement": "MIC", "setting": "P. aeruginosa A9843A", "result": "> 100", "unit": "µg/mL"}, {"measurement": "MIC", "setting": "B. subtilis PCI 219", "result": 0.8, "unit": "µg/mL"}, {"measurement": "MIC", "setting": "M. luteus PCI 1001", "result": 1.6, "unit": "µg/mL"}, {"measurement": "MIC", "setting": "E. coli K12", "result": "> 100", "unit": "µg/mL"}, {"measurement": "MIC", "setting": "E. coli NIHJ JC-2", "result": "> 100", "unit": "µg/mL"}, {"measurement": "MIC", "setting": "S. aureus Smith", "result": 3.1, "unit": "µg/mL"}, {"measurement": "MIC", "setting": "S. aureus A15036 (MRSA)", "result": 3.1, "unit": "µg/mL"}, {"measurement": "MIC", "setting": "C. fleundii GN 7391", "result": "> 100", "unit": "µg/mL"}, {"measurement": "MIC", "setting": "K. pneumoniae PCI 602", "result": "> 100", "unit": "µg/mL"}]}
{"compound": "CCCCCCCCCCCCCC(=O)O[C@@H]1[C@@H](C)[C@@]2(O)[C@@H](C=C(CO)C[C@]3(O)C(=O)C(C)=C[C@@H]23)[C@@H]2C(C)(C)[C@]12OC(C)=O", "note": "[Phorbol 12-myristate 13-acetate]", "values": [{"measurement": "Note (reported NGF mimic activity)", "setting": "[1]", "result": "NGF inducer"}]}
{"compound": "C=C1/C(=C\\C=C2/CCC[C@]3(C)[C@@H]([C@H](C)CCCC(C)(C)O)CC[C@@H]23)C[C@@H](O)C[C@@H]1O", "note": "[1,25-Dihydroxy-vitamin D3]", "values": [{"measurement": "Note (reported NGF mimic activity)", "setting": "[1]", "result": "NGF inducer"}]}
